Data as given in patent publication US20160280736A1, “CYCLIC PEPTIDE COMPOUND, AND PREPARATION METHOD, PHARMACEUTICAL COMPOSITION AND USE THEREOF” (HANGZHOU GUANYU BIO-MEDICAL CO., LTD., priority 2013, published 2016).

Assays:
[1] = system: BGC-823 (human gastric cancer cells); experiment: MTT cancer cell growth inhibition; type: cell-based; settings: Homo sapiens, BGC-823, 72 h, 72 hours incubation, BGC-823 cells, read-out: GI50 BGC8
Source text: (§1) MTT assay principle is yellow MTT can penetrate membrane into the cell, succinic dehydrogenase of the mitochondria in living cells can make exogenous MTT reduction of insoluble in water of blue-violet acicular formazan for crystallization and deposition in the cell, crystallization can be dissolved dimethyl sulfoxide (DMSO) solution, detected its absorbance at 490 nm/570 nm wavelength by enzyme-linked immunosorbent assay, which can reflect the number of cells.
(§2) Using DMEM+10% FBS culture medium or using 1640+10% FBS culture, respectively.
(§3) Experimental group: 190 μl cell suspension+10 μl different concentrations of drugs (the final concentration is 10^−5˜10^−10 M)
(§4) a) Cells were seeded in 96-well plates with the inoculation of 1500/well, 190 μl/hole, 37° C., 5% of CO2 incubator overnight;
(§5) b) The next day each well was added 10 μl of different drugs. The final concentration of drug was 10^−5˜10^−10 M, three parallel holes; 37° C., 5% CO2 culture incubator for 72 hours incubation;
(§6) c) Per well was added 20 μl 5 mg/ml of MTT, 37° C., 5% CO2 culture incubator for 4 hours incubation;
(§7) d) The supernatant was discarded. Each well was added 100 μl of DMSO and oscillation;
(§8) e) 570 nm readings. Calculate cell viability. GI50 calculation based on the results.

[2] = system: lncap (prostate cancer cells); experiment: MTT cancer cell growth inhibition; type: cell-based; settings: Homo sapiens, LNCaP, 72 h, 72 hours incubation, lncap cells, read-out: GI50 lncap
Source text: as §1, §2, §3, §4, §5, §6, §7, §8

[3] = system: A549 (human lung cancer cells); experiment: MTT cancer cell growth inhibition; type: cell-based; settings: Homo sapiens, A549, 72 h, 72 hours incubation, A549 cells, read-out: GI50 A549
Source text: as §1, §2, §3, §4, §5, §6, §7, §8

[4] = system: MOLT-4 (human acute lymphoblastic leukemia cells); experiment: MTT cancer cell growth inhibition; type: cell-based; settings: Homo sapiens, MOLT-4, 72 h, 72 hours incubation, MOLT-4 cells, read-out: GI50 Molt-
Source text: as §1, §2, §3, §4, §5, §6, §7, §8

[5] = system: PANC-1 (Pac-1, human pancreatic cancer cells); experiment: MTT cancer cell growth inhibition; type: cell-based; settings: Homo sapiens, PANC-1, 72 h, 72 hours incubation, PANC-1 cells, read-out: GI50 PAN
Source text: as §1, §2, §3, §4, §5, §6, §7, §8

[6] = system: MCF-7 (human breast cancer cells); experiment: MTT cancer cell growth inhibition; type: cell-based; settings: Homo sapiens, MCF7, 72 h, 72 hours incubation, MCF-7 cells
Source text: as §1, §2, §3, §4, §5, §6, §7, §8

[7] = system: Hela (human cervical cancer cells); experiment: MTT cancer cell growth inhibition; type: cell-based; settings: Homo sapiens, HeLa, 72 h, 72 hours incubation, Hela cells, read-out: GI50 Hela
Source text: as §1, §2, §3, §4, §5, §6, §7, §8

[8] = system: DU145 (human prostate cancer cells); experiment: MTT cancer cell growth inhibition; type: cell-based; settings: Homo sapiens, DU-145, 72 h, 72 hours incubation, DU145 cells, read-out: GI50 Du14
Source text: as §1, §2, §3, §4, §5, §6, §7, §8

[9] = system: HT1080 (human fibrosarcoma cells); experiment: MTT cancer cell growth inhibition; type: cell-based; settings: Homo sapiens, HT-1080, 72 h, 72 hours incubation, HT1080 cells, read-out: GI50 HT10
Source text: as §1, §2, §3, §4, §5, §6, §7, §8

[10] = system: U937 (human leukemia cells); experiment: MTT cancer cell growth inhibition; type: cell-based; settings: Homo sapiens, U-937, 72 h, 72 hours incubation
Source text: as §1, §2, §3, §4, §5, §6, §7, §8

HDAC2 = HDAC2 (Homo sapiens, UniProt Q92769); experiment: HDAC biochemical activity measurement (fluorescent substrate deacetylation); settings: HDAC2 enzyme, 37°, 30 minutes
Description: (§9) Measurement principle: The chemical activity of the compound is determined according to the degree of deacetylation inhibition of the HDAC enzyme. This experiment measured the degree of deacetylation related to tumor proliferation and metastasis of HDAC1, HDAC2, HDAC3, HDAC8, HDAC11 five subtypes HDAC enzymes. After the substrate containing an acetylated lysine side chain and HDAC enzyme are labeled with a fluorescent label, the fluorescent substrate is de acetyl. The fluorescent labeled substrate is cleaved by the enzyme, and the fluorescent substance is released, which generates 460 nm emission light under the excitation of 360 nm light.
(§10) Specific steps: HDAC substrate was diluted with reaction buffer to 200M (reaction concentration of 20M), the HDAC enzyme was diluted to the appropriate concentration, then added different concentrations of the test compounds and acted at 37 ? 30 minutes, and then added the same volume of 2-times concentration substrate developing solution (developer), incubated at room temperature for 15 minutes. Finally, the last reading measured with a microplate plate reader, excitation light was 360 nm, the emitted light was 460 nm, data processing software was Prime 4, and the results are shown in Table 1.

HDAC11 = molecular target: T1, HDAC11 (Homo sapiens, UniProt Q96DB2); experiment: as above; settings: IC50 (μM) HDAC11, HDAC11 enzyme, 37°, 30 minutes
T1 sequence (Q96DB2 1-347): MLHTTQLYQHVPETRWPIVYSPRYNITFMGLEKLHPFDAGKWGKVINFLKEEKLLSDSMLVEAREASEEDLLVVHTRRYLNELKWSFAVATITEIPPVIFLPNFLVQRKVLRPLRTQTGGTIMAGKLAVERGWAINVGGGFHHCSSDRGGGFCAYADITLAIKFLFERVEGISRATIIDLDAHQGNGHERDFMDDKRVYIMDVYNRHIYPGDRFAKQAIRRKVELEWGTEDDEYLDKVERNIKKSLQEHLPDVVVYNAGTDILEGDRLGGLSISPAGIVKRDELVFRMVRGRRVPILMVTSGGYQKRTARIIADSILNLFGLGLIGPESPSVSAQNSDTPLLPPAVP
Description: as §9, §10

HDAC8 = molecular target: T2, HDAC8 (Homo sapiens, UniProt Q9BY41); experiment: as above; settings: HDAC8 enzyme, 37°, 30 minutes
T2 sequence (Q9BY41 1-377): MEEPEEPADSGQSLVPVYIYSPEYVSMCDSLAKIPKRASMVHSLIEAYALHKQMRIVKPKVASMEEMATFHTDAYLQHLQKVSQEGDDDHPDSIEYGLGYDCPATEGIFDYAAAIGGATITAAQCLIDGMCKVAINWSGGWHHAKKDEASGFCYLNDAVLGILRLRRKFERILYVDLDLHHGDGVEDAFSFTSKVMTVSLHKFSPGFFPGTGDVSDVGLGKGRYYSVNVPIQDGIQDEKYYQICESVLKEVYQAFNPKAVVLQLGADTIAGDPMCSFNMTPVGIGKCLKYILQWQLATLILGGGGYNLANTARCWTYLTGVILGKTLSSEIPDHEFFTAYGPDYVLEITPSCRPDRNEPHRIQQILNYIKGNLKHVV
Description: as §9, §10

HDAC1 = HDAC1 (Homo sapiens, UniProt Q13547); experiment: as above; settings: HDAC1 enzyme, 37°, 30 minutes
Description: as §9, §10

HDAC3 = HDAC3 (Homo sapiens, UniProt O15379); experiment: as above; settings: IC50 (μM) HDAC3, HDAC3 enzyme, 37°, 30 minutes
Description: as §9, §10

[11] = system: KBM5-T315I (human chronic myelogenous leukemia); experiment: MTT cancer cell growth inhibition; type: cell-based; settings: 72 h, KBM5-T315I cells, 72 hours incubation, read-out: GI50 KBM5-T
Source text: as §1, §2, §3, §4, §5, §6, §7, §8

[12] = system: Huh-7 (human hepatoma cells); experiment: MTT cancer cell growth inhibition; type: cell-based; settings: Huh-7, 72 h, Huh-7 cells, 72 hours incubation
Source text: as §1, §2, §3, §4, §5, §6, §7, §8

[13] = system: MDA-MB-231 (breast cancer cells); experiment: MTT cancer cell growth inhibition; type: cell-based; settings: Homo sapiens, MDA-MB-231, 72 h, MDA-MB-231 cells, 72 hours incubation
Source text: as §1, §2, §3, §4, §5, §6, §7, §8

[14] = system: N-87 (human gastric cancer cells); experiment: MTT cancer cell growth inhibition; type: cell-based; settings: 72 h, N-87 cells, 72 hours incubation
Source text: as §1, §2, §3, §4, §5, §6, §7, §8

[15] = system: K562 (human leukemia cells); experiment: MTT cancer cell growth inhibition; type: cell-based; settings: K562, 72 h, 72 hours incubation
Source text: as §1, §2, §3, §4, §5, §6, §7, §8

[16] = system: KBM-5 (human chronic myelogenous leukemia); experiment: MTT cancer cell growth inhibition; type: cell-based; settings: KBM5, 72 h, KBM-5 cells, 72 hours incubation
Source text: as §1, §2, §3, §4, §5, §6, §7, §8

[17] = system: SGC-7901 (human gastric cancer cells); experiment: MTT cancer cell growth inhibition; type: cell-based; settings: SGC-7901, 72 h, SGC-7901 cells, 72 hours incubation, read-out: GI50 SGC-79
Source text: as §1, §2, §3, §4, §5, §6, §7, §8

[18] = system: HCC827 (human non-small cell lung cancer cells); experiment: MTT cancer cell growth inhibition; type: cell-based; settings: HCC827, 72 h, 72 hours incubation, read-out: GI50 HCC8
Source text: as §1, §2, §3, §4, §5, §6, §7, §8

[19] = system: Bel-7402 (human hepatoma cells); experiment: MTT cancer cell growth inhibition; type: cell-based; settings: Bel-7402, 72 h, Bel-7402 cells, 72 hours incubation, read-out: GI50 Bel-7
Source text: as §1, §2, §3, §4, §5, §6, §7, §8

HDAC2, sequence (Q92769 whole entry, species assumed): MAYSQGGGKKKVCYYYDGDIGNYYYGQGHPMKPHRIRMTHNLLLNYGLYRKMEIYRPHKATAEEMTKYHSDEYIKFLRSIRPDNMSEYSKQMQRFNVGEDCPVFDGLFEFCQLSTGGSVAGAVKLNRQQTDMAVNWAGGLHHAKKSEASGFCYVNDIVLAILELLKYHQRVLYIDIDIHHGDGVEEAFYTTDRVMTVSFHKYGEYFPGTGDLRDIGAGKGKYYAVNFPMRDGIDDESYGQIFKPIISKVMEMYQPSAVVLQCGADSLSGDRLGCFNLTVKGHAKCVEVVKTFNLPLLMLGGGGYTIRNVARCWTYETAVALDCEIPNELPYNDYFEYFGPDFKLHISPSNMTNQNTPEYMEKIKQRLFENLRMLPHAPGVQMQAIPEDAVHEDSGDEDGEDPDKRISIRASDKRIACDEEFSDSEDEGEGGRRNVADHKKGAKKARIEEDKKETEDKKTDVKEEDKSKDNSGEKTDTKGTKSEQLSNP
HDAC3, sequence (O15379 whole entry, species assumed): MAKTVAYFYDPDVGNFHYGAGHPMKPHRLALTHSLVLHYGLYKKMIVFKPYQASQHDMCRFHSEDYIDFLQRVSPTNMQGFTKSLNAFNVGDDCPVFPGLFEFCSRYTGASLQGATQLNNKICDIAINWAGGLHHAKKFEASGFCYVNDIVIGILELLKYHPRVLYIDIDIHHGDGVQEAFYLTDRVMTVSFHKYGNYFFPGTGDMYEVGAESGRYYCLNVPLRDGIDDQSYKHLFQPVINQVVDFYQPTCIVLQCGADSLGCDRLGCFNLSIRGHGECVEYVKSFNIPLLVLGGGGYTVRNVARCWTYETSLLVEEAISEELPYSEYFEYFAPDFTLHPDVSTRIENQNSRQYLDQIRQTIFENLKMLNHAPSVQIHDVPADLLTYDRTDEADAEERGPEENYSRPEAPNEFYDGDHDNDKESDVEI
HDAC3, sequence (Q9Y618 395-489 partner limits assumed, species assumed): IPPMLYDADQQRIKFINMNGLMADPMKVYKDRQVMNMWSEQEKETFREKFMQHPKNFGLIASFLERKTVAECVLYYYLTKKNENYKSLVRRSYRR
HDAC1, sequence (Q13547 whole entry, species assumed): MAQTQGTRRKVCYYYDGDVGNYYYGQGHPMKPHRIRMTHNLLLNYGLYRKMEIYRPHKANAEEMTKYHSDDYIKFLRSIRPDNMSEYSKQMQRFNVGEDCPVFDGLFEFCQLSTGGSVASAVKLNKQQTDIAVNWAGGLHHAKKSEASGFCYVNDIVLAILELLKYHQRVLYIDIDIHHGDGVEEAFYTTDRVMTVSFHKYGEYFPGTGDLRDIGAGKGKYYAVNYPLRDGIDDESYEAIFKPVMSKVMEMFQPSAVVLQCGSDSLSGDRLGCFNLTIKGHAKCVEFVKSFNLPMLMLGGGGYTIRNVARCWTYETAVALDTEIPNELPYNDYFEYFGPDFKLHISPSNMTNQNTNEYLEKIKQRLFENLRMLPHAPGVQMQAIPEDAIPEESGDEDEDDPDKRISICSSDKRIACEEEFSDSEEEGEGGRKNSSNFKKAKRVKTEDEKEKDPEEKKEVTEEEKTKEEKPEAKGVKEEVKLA

C/C=C1\NC(=O)c2cc(SC)cc(n2)CNC(=O)C[C@@H](/C=C/CCSC(=O)CCCC)OC(=O)[C@H](C(C)C)NC1=O [Compound 157]
GI50 [1]: 37 nM
GI50 [2]: 51 nM
GI50 [3]: 25 nM
GI50 [4]: 25 nM
GI50 [5]: 26 nM
GI50 [6]: 23 nM
GI50 [7]: 76 nM
GI50 [8]: 73 nM
GI50 [9]: 95 nM
GI50 [10]: 24 nM
IC50 (HDAC2): 0.019 µM
IC50 (HDAC11): 0.091 µM
IC50 (HDAC8): 0.027 µM
IC50 (HDAC1): 0.082 µM
IC50 (HDAC3): 0.051 µM

C/C=C1\NC(=O)c2ccc(F)c(n2)CNC(=O)C[C@@H](/C=C/CCSC(C)=O)OC(=O)[C@H](C(C)C)NC1=O (single isomer, unassigned) [Example 50]
GI50 [11]: 63 nM
GI50 [12]: 25 nM
GI50 [13]: 25 nM
GI50 [14]: 69 nM
GI50 [15]: 42 nM
GI50 [16]: 79 nM
GI50 [17]: 39 nM

C/C=C1\NC(=O)c2cc(F)cc(n2)CNC(=O)C[C@@H](/C=C/CCSC(C)=O)OC(=O)[C@H](C(C)C)NC1=O [Compound 49]
GI50 [11]: 55 nM
GI50 [12]: 26 nM
GI50 [18]: 72 nM
GI50 [13]: 26 nM
GI50 [14]: 73 nM
GI50 [15]: 17 nM
GI50 [19]: 72 nM
GI50 [16]: 87 nM
GI50 [17]: 67 nM
